For the test, the target named is T1, Rat 5HT7 Receptors (Rattus norvegicus, UniProt P32305).
T1 construct: expressed in transfected cells; host or cells: HEK-293
Put plainly: 3H-5-Carboxamidotryptamine (3H-5-CT) binding to rat 5HT7 receptors expressed in HEK-293 cells. The procedure:
The affinities of the active compounds for 5HT7 receptors can be determined using standard radioligand binding assays as described in the literature. The 5HT7 affinity can be measured using the following procedure.
^3H-5-Carboxamidotryptamine (^3H-5-CT) Binding to Rat 5HT7 Receptors Expressed in HEK-293 Cells: […]
Nonspecific binding is determined using 1 uM 5-HT creatinine sulfate. […] Radioactivity is quantified by liquid scintillation counting using a BetaPlate counter (LKB).
The percent inhibition of specific binding is calculated for each concentration of test compound. […] Ki values are calculated according to Cheng & Prusoff: Ki=IC50/(1+(L/Kd)), where L is the concentration of the radioligand used in the experiment and the Kd value is the dissociation constant for the radioligand determined in separate saturation experiments. […]

Like-named read-outs stand apart in the source and are kept apart here.

T1 sequence (P32305 whole entry): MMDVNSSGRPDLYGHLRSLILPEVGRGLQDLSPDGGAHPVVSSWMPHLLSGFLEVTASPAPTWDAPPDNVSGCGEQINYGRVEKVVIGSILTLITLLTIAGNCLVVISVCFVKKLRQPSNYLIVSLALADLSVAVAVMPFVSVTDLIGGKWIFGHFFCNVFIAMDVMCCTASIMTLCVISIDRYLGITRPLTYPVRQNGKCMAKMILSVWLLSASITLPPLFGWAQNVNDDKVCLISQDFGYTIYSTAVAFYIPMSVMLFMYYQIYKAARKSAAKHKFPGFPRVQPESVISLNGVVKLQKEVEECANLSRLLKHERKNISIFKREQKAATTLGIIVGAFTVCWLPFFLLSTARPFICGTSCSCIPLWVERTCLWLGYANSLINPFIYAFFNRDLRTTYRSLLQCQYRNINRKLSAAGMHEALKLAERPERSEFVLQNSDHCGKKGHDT

Turning to `CCc1cnc2cc(C3CCCNC3)ccc2c1` (racemic) [Example 10, 3-Ethyl-7-Piperidin-3-yl-Quinoline], the Ki (as a rule, a measure of affinity in units of concentration, obtained from inhibition or displacement) (3H-5-CT 0.4 nM radioligand, HEK-293 cell membranes expressing rat 5HT7, Cheng & Prusoff, read-out: Ki) was around 500 nM. The molecule `Cc1cnc2c(C3CCCNC3)cccc2c1` (racemic) [Example 8, 3-Methyl-8-Piperidin-3-yl-Quinoline] yielded a Ki of around 7.6 nM.
